These results are taken from patent US20230339835A1, “2,3,5-TRIMETHYL-6-NONYLCYCLOHEXA-2,5-DIENE-1,4-DIONE FOR SUPPRESSING AND TREATING ALPHA-SYNUCLEINOPATHIES, TAUOPATHIES, AND OTHER DISORDERS” (PTC THERAPEUTICS, INC., priority 2018, published 2023).

Each structure is given as a SMILES string.

For test [1], the target named is T1, recombinant human αSynuclein (Homo sapiens, UniProt P37840).
T1 construct: purchased Proteos, Inc
Briefly: Cell-free αSynuclein aggregation assay (Thioflavin T). It is filed as biochemical. As to conditions: 200 μM αSynuclein, 100 μM compound, t=24 hours, one-way ANOVA with Tukey's test. The procedure:
Summary: The compound 2,3,5-trimethyl-6-nonylcyclohexa-2,5-diene-1,4-dione (“C9”), and its C8 (2,3,5-trimethyl-6-octylcyclohexa-2,5-diene-1,4-dione) and C7 (2,3,5-trimethyl-6-heptylcyclohexa-2,5-diene-1,4-dione) analogs were tested for their function as inhibitors of αSynuclein aggregation, as measured by the presence and extent of a lag phase in the kinetics of protein aggregation. Changes in the fluorescence intensity by the aggregate-binding fluorophore, Thioflavin T, were followed to report on the protein aggregation as a function of time.
Experimental Methods: Cell-free αSynuclein aggregation assays were set up with 200 μM of recombinant human αSynuclein (Proteos, Inc.) in the presence of 100 μM of compound (from 10 mM stock solutions in DMSO) or in 1% (v/v) DMSO as vehicle. All solutions were prepared in Dulbecco's phosphate-buffered saline (DPBS) buffer (pH 7.4) with 0.03% (v/v) NaN3 and 5 μM Thioflavin T (ThT), prepared as a master mix before addition of the protein or compounds. A protein master mix was then prepared and separated into 4 tubes (1 per condition). […]
Protein solution+/−compound and background samples were then loaded into wells of an optically transparent 96-well plate with black walls (Corning Costar), which was sealed with a LightCycler® 480 seal (Roche Life Science), incubated at 37° C. for 15 minutes to equilibrate, after which the data collection was started. A Tecan M1000 spectrometer was used to collect data points on ThT fluorescence (ex/em 450/490 nm) every 30 minutes. The plate was agitated by shaking in between fluorescence reads.
Data Analysis and Results: Fluorescence intensity data were collected on all the samples over time. The endpoint fluorescence intensity unit (FIU) value of the mean of vehicle-treated αSyn samples was set to 100%, and all other FIU values were normalized relative to it (see FIG. 1A). The end results were plotted as normalized ThT fluorescence (%) with respect to time.
Normalized ThT fluorescence values (% FIU) at t=24 hours were used to compare samples (see FIG. 1B). […]

For test [2], the target named is T2, pre-formed fibrils (PFFs) of human wild-type Tau K18 fragment (Homo sapiens, UniProt P10636).
T2 construct: human recombinant Tau K18 WT fragment were generated by incubating the Tau K18 monomer (Bio-Techne®); purchased Bio-Techne
T2 sequence (P10636 561-685 limits assumed): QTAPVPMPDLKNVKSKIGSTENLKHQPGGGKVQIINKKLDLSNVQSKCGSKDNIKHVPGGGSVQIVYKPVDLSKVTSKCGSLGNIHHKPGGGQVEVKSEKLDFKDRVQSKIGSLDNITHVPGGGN
Briefly: Cell-free Tau K18 WT pre-formed fibril disaggregation assay (Thioflavin T). It is filed as biochemical. To be noted: 10 μM Tau PFFs, 30 μM compound, 94 hr, vs vehicle (Dunnett's test). The procedure: Summary: Compounds 2,3,5-trimethyl-6-nonylcyclohexa-2,5-diene-1,4-dione (C9), 2,3,5-trimethyl-6-octylcyclohexa-2,5-diene-1,4-dione (C8), and 2,3,5-trimethyl-6-heptylcyclohexa-2,5-diene-1,4-dione (C7) were tested for their ability to disaggregate pre-formed fibrils (PFFs) of human wild-type Tau K18 fragment, as measured by the decrease in fluorescence intensity of the aggregate-binding fluorophore, Thioflavin T, over time.
Experimental Methods: Pre-formed fibrils (PFFs) of the human recombinant Tau K18 WT fragment were generated by incubating the Tau K18 monomer (Bio-Techne®) with sodium heparin in a 1:1 ratio in presence of excess (50×) tris(2-carboxyethyl)phosphine (TCEP) as the reducing agent in Dulbecco's phosphate-buffered saline (DPBS) buffer (pH 7.4). The mixture was incubated for 4 days at 37° C. without agitation to yield PFFs in 100 μM final concentration.
Cell-free Tau disaggregation assays were set up with 10 μM of Tau PFFs in the presence of 30 μM of compound (from 10 mM stocks in DMSO) or in 0.3% (v/v) DMSO as vehicle. All solutions were prepared in DPBS buffer (pH 7.4) with 0.03% (v/v) NaN3 and 5 μM Thioflavin T (ThT), prepared as a master mix before addition of the protein or compounds. A protein master mix was first prepared the day before the assay to pre-equilibrate the Tau PFFs at 10 μM at ambient temperature and atmosphere. The next day, the pre-mixed protein solution was separated into 4 tubes (1 per condition). […]
Tau PFFs solution+/−compound and background samples were then loaded into wells of an optically transparent 96-well plate with black walls, which was sealed with a LightCycler® 480 seal (Roche Life Science), incubated at 37° C. for 15 minutes to equilibrate and the data collection was initiated. A Tecan M1000 spectrometer was used to collect data points on ThT fluorescence (ex/em 450/490 nm) every 30 minutes without agitation.
Data Analysis and Results: The maximum fluorescence intensity unit (FIU) value of the vehicle-treated Tau samples was set to 100%, to which all other FIU values were normalized relatively. […]

Take `CCCCCCCCC1=C(C)C(=O)C(C)=C(C)C1=O` [Compound C8, 2,3,5-trimethyl-6-octylcyclohexa-2,5-diene-1,4-dione, reference compound]: the “inhibition of αSynuclein aggregation (normalized ThT fluorescence vs vehicle)” value in test [1] is reported as “not statistically significant”. In addition, the “reduction in Tau fibril content” value in test [2] was “did not have a significant reduction”.
`CCCCCCCCCC1=C(C)C(=O)C(C)=C(C)C1=O` [Compound C9, 2,3,5-trimethyl-6-nonylcyclohexa-2,5-diene-1,4-dione]: the “inhibition of αSynuclein aggregation (normalized ThT fluorescence vs vehicle)” value in test [1] was “significant inhibition effect”. Further, in test [2], the “reduction in Tau fibril content” value was “significant reduction”.
